Results from patent US10183015B2, “Heterocyclic compounds and methods of use” (Medivation Technologies LLC, priority 2015, dated 2019).
Several values for one entry are separate records, joined by “and”; a condition that tells them apart may be missing. Equal entries are not always repeated.

Key:
[1] = tested on: HepG2 cells; assay: HepG2 cell viability under serum-free conditions (MTS); type: cell-based; conditions: Homo sapiens
Description: Cancer cells such as HepG2 cells depend on SREBP activation and de novo lipogenesis to survive, particularly in low serum or serum-free conditions. Using this model, compounds were screened over 24 hours for the ability to block cleavage of SREBP to its active form and over 72 hours for an effect on cell viability under serum-free conditions.
For viability measurements, HepG2 cells were seeded at 5,000 cells per well in 96-well plates in DMEM supplemented with 10% FBS. After 1 day in culture, cells were treated with compounds (20 μM & 5 μM) for 3 days in DMEM without FBS. Viability was measured by MTS […]. […]

[2] = tested on: 60% high fat Paigen diet induced NASH mouse model; assay: Short-term (21 day) Paigen-diet NASH mouse model: plasma ALT, AST, triglycerides, cholesterol, free fatty acids; type: in vivo
Description: To investigate whether Compound #37 prevents the development of pathology associated with NASH and steatosis in an acute exploratory disease model, a study was conducted using a diet-induced acute liver steatosis model in mice. As described below, in this study, C57BL/6J mice were initiated on the Paigen diet and simultaneously treated with Compound #37 (5, 20, and 40 mg/kg/day) or vehicle control (20% HPβCD 10 mL/kg/day) by oral gavage for 21 days.
After acclimation, 8-week old male C57Bl/6J mice (Charles River) weighing about 25 g were randomized in 4 groups according their body weight and treated once daily around noon by oral gavage with vehicle, or Compound #37 at various for 21 days as follows: Group 1: vehicle-20% (2-hydroxypropyl)-β-cyclodextrin (HP-β-CD) (n=10); Group 2: Compound #37, 5 mg/kg (n=10) Group 3: Compound #37, 20 mg/kg (n=10) Group 4: Compound #37, 40 mg/kg (n=10). During the treatment period, body weight and food intake (measured over 24h) were measured 3 times per week and once a week, respectively. During the acclimation, all mice were fed a standard diet (Special Diets Services RM1 (E), product no. 801492) and tap water ad libitum. After the acclimation period, mice were fed until the end of the experiment with a 60% high fat Paigen diet (60 kcal % fat, 1.25% cholesterol, and 0.5% cholate; D11061901, Research Diet) and tap water ad libitum.
One hour after the last dosing (noon), blood was collected by retro-orbital bleeding (maximal volume on EDTA) under isoflurane anesthesia to measure plasma triglycerides, total cholesterol, non-esterified fatty acid, ALT and AST. Mice were then sacrificed by cervical dislocation, and livers were harvested and weighed. Liver samples from the same lobe were dissected, frozen, and analyzed as described below.
Data Analysis. Values are presented as mean±standard error of the mean (sem). To assess the compound effect, treated groups were compared to vehicle with a 1-way ANOVA+Dunnett's post-test. […] For RT-qPCR and score Kruskall-Wallis test was performed with Dunns post-test. For body weight evolution the treated groups were compared to vehicle with a 2-way ANOVA with Bonferroni post-test. For each test, a p<0.05 was considered significant.

[3] = tested on: diet-induced NASH obese insulin resistant mice; assay: DIN mouse model: liver oil red O staining (% labeling); type: in vivo
Description: Male C57Bl/6J mice (8 weeks old) were housed in enriched ventilated cages (31×12.5×12.7 cm) throughout the experimental phase. Animals' cages litters were changed at least once a week. Animal were housed 5 per cage on inverted 12-hour light cycle (at 09:00 am lights off), 22±2° C. and 55±10% relative humidity. The acclimation period was 20 days. During the acclimation period, all mice were fed a standard diet (RM1 (E) 801492, SDS) and tap water ad libitum. After the acclimation period, mice were fed with the DIN diet (60% fat, cholesterol enriched) and fructose-enriched tap water ad libitum until the end of the experiment.
At 6 weeks of diet, mice were 4-hour fasted (09:00 am to 1:00 pm) and blood (150 μl/EDTA) was collected at 01:00 pm by retro-orbital bleeding under isoflurane anesthesia. Mice were then allocated in 2 homogenous groups (n=12/group) according to their plasma levels of ALT (average levels: 685U/L), AST (average levels: 627U/L) and HOMA-IR index (average value: 4.7), into 2 homogenous groups (see values at day 0 in Tables 15A and 15B ALT/AST and Tables 16A and 16B for HOMA-IR). Mice were then treated once daily by oral gavage with vehicle (Group 1) or Compound #37 at 20 mg/kg (Group 2) for 70 days.
Slides having a single hepatic lobe section stained with H&E and […] were digitized using a Nanozoomer from Hamamatsu. Sections were evaluated with knowledge of groups. […]

[4] = 5 mg/kg p.o. daily, 21 days of diet and treatment, group mean
[5] = 5 mg/kg p.o. daily, 21 days of diet and treatment, individual animals
[6] = 20 mg/kg p.o. daily, 21 days of diet and treatment, group mean
[7] = 20 mg/kg p.o. daily, 21 days of diet and treatment, individual animals
[8] = 40 mg/kg p.o. (stopped after 4 administrations), 9 days of diet, group mean
[9] = 40 mg/kg p.o. (stopped after 4 administrations), 9 days of diet, individual animals

For `CC(C)Cc1cc(-c2nc(-c3ccc(NS(=O)(=O)C(F)(F)F)cc3Cl)cs2)ccn1` [Compound 37, N-(3-chloro-4-(2-(2-isobutylpyridin-4-yl)thiazol-4-yl)phenyl)-1,1,1-trifluoromethanesulfonamide], the cytotoxicity at 5 µM ([1]; HepG2, 72 h, 5 μM, 3 days, DMEM without FBS, read-out: Average Viability (% Inhibition, n = 3)) was 94%, the cytotoxicity at 20 µM ([1]; HepG2, 72 h, 20 μM, 3 days, DMEM without FBS, read-out: Average Viability (% Inhibition, n = 3)) was 95% and the IC50 ([1]; HepG2, serum-free, read-out: IC50 for decreased viability of HepG2 cells) was 2100 nM. For the same molecule, the “ALT (U/L)” value [2, 4] was 419.3 U/L, the “AST (U/L)” value [2, 4] was 449.4 U/L and the AST/ALT ratio [2, 4] was 1.2. The “ALT (U/L)” value [2, 5] was 382 U/L and 620 U/L and 346 U/L and 825 U/L and 267 U/L and 246 U/L and 255 U/L and 447 U/L and 435 U/L and 370 U/L, the “AST (U/L)” value [2, 5] was 350 U/L and 416 U/L and 710 U/L and 405 U/L and 286 U/L and 392 U/L and 481 U/L and 528 U/L and 477 U/L and the AST/ALT ratio [2, 5] was 0.92 and 1.20 and 0.86 and 1.52 and 1.16 and 1.54 and 1.08 and 1.21 and 1.29. The “ALT (U/L)” value [2, 6] was 403.5 U/L, the “AST (U/L)” value [2, 6] was 431.2 U/L and the AST/ALT ratio [2, 6] was 1.1. The “ALT (U/L)” value [2, 7] was 266 U/L and 587 U/L and 432 U/L and 413 U/L and 385 U/L and 338 U/L, the “AST (U/L)” value [2, 7] was 362 U/L and 467 U/L and 344 U/L and 615 U/L and 424 U/L and 375 U/L and the AST/ALT ratio [2, 7] was 1.36 and 0.80 (2×) and 1.49 and 1.10 and 1.11. For the same molecule, the “ALT (U/L)” value [2, 8] was 7043.8 U/L, the “AST (U/L)” value [2, 8] was 2685.0 U/L and the AST/ALT ratio [2, 8] was 0.8. The “ALT (U/L)” value [2, 9] was 1095 U/L and 1160 U/L and 12560 U/L and 13360 U/L, the “AST (U/L)” value [2, 9] was 1165 U/L and 1555 U/L and 3900 U/L and 4120 U/L and the AST/ALT ratio [2, 9] was 1.1 and 1.3 and 0.3 (2×). For the same molecule, the “mean AST and ALT” value ([2]; 40 mg/kg, 4 surviving animals, sacrifice on day 9) was > 2500 U/L, the “ALT and AST levels” value ([2]; 40 mg/kg, day 9) was “very high” and the “ALT (U/L) Mean” value ([2]; Table B7, 5 mg/kg) was 419.30 U/L. The “AST (U/L) Mean” value ([2]; Table B7, 5 mg/kg) was 449.44 U/L, the “ALT (U/L) Mean” value ([2]; Table B7, 20 mg/kg) was 403.50 U/L and the “AST (U/L) Mean” value ([2]; Table B7, 20 mg/kg) was 431.17 U/L. The “O red Oil labeling” value ([3]; 20 mg/kg group, mean, n 11) was 12.1% and the “O red Oil labeling” value ([3]; 20 mg/kg, individual animals) was 12.9% and 15.1% and 0.9% and 18.6% and 19.3% and 21.3% and 0.3% and 8.3% and 19.5% and 13.0% and 4.2%.
